Laboratory results taken from the supplement of paper PMC10307832.

What was measured:
Experiment in all cases: relative viability (nuclei count vs DMSO), 5 days (fraction); higher = more cells survive
[1] = compound: CC1=C(C(=O)N2C=CSC2=N1)CCN3CCC(=C(C4=CC=CC=C4)C5=CC=C(C=C5)F)CC3 + CC(=O)c1c(C)c2cnc(Nc3ccc(N4CCNCC4)cn3)nc2n(C2CCCC2)c1=O [Palbociclib] (partner 0.5 µM)
Summary of the method: (§1)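 Relative viability divides the nuclei count in treated wells by that in vehicle wells. Lung cancer cell lines were seeded in 1536-well plates, dosed by pin tool the next day, and fixed and stained after 5 days in one step with final 0.05% Triton X-100, 1% formaldehyde and 1 ug/ml Hoechst. Dosing was a single drug or a fixed anchor-drug dose plus five library-drug doses (not always all listed) in √10 steps, and values are medians of duplicate plates imaged at 4×.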

[2] = compound: CC1=C(C(=O)N2C=CSC2=N1)CCN3CCC(=C(C4=CC=CC=C4)C5=CC=C(C=C5)F)CC3 + CC(C)C[C@H](NC(=O)[C@H](Cc1ccccc1)NC(=O)c1cnccn1)B(O)O [Bortezomib] (partner 0.002 µM)
Summary of the method: as §1

[3] = compound: CC1=C(C(=O)N2C=CSC2=N1)CCN3CCC(=C(C4=CC=CC=C4)C5=CC=C(C=C5)F)CC3 + COc1cc2c(Oc3ccc(NC(=O)C4(C(=O)Nc5ccc(F)cc5)CC4)cc3F)ccnc2cc1OCCCN1CCOCC1 [Foretinib] (partner 0.25 µM)
Summary of the method: as §1

[4] = compound: CC1=C(C(=O)N2C=CSC2=N1)CCN3CCC(=C(C4=CC=CC=C4)C5=CC=C(C=C5)F)CC3 + CS(=O)(=O)N1CCN(Cc2cc3nc(-c4cccc5[nH]ncc45)nc(N4CCOCC4)c3s2)CC1 [Pictilisib] (partner 1 µM)
Summary of the method: as §1

Cell Line	relative viability ([1]; first compound 0.08 µM)	relative viability ([1]; first compound 0.253 µM)	relative viability ([1]; first compound 0.8 µM)	relative viability ([1]; first compound 2.53 µM)	relative viability ([1]; first compound 8 µM)	relative viability ([2]; first compound 0.08 µM)	relative viability ([2]; first compound 0.253 µM)	relative viability ([2]; first compound 0.8 µM)	relative viability ([2]; first compound 2.53 µM)	relative viability ([2]; first compound 8 µM)	relative viability ([3]; first compound 0.08 µM)	relative viability ([3]; first compound 0.253 µM)	relative viability ([3]; first compound 0.8 µM)	relative viability ([3]; first compound 2.53 µM)	relative viability ([3]; first compound 8 µM)	relative viability ([4]; first compound 0.08 µM)	relative viability ([4]; first compound 0.253 µM)	relative viability ([4]; first compound 0.8 µM)	relative viability ([4]; first compound 2.53 µM)	relative viability ([4]; first compound 8 µM)
201T	0.355	0.35	0.366	0.35	0.348	1.16	1.12	1.08	1.16	1.13	1.1	1.26	1.16	1.25	0.864	0.647	0.779	0.632	0.712	0.808
A-427	0.533	0.565	0.499	0.541	0.531	1.07	1.08	0.984	1.03	0.834	1.08	1.1	1.16	1.15	1	0.801	0.86	0.676	0.83	0.737
ABC-1	0.579		0.581	0.559	0.67	0.313	0.297	0.252	0.244	0.269	1.03	1.18	0.958	0.869	0.635	0.817	0.973	0.827	0.684	0.483
BEN	0.455	0.498	0.479	0.558	0.498	0.76	0.757	0.864	0.828	0.534	0.708	0.74	0.639	0.677	0.595	0.521	0.602	0.562	0.516	0.505
CAL-12T	0.371	0.389	0.434	0.462	0.319		0.745	0.843	1.03	0.733	1.17	1.04	1.29	1.23	0.691		0.445	0.411	0.42	0.387
COR-L23	0.292	0.306	0.255	0.286	0.27	0.701	0.74	1.02	1.18	0.397	0.898	1.02	1.07	1.23	0.584	0.775	0.595	0.945	0.69	0.52
COR-L 105	0.439	0.419	0.383	0.406	0.383	0.83	0.691	0.75	0.919	0.568	0.574	1.05	1.02	1.56	0.761	0.349	0.392	0.376	0.436	0.403
Calu-6						1.05	1.14	0.933	1.02	0.767	0.93	0.93	0.863	0.898	0.707	0.937	0.847	0.915	1.2	0.54
ChaGo-K-1	0.919	0.92	0.989	1.05	0.649	1.24	0.989	0.761	1.34	0.94	0.884	1.04	1.04	0.942	0.548	0.976	0.593	0.476	0.937	0.604
EBC-1						0.57	0.64	0.513	0.437	0.529	0.109	0.101	0.104	0.108	0.106	0.343	0.37	0.29	0.355	0.366
EKVX	0.371	0.366	0.349	0.397	0.293	0.826	0.923	1.18	1.01	0.684	0.671	1.04	0.815	0.855	0.677	0.38	0.412	0.479	0.408	0.36
EMC-BAC-2	0.497	0.494	0.493	0.46	0.506	0.902	1.13	1.07	1.07	0.705	0.945	0.982	0.981	1.12	0.972	0.543	0.516	0.505	0.617	0.424
EPLC-272H	0.321	0.316	0.33	0.329	0.337		0.888	0.888	1.07	0.921	0.658	0.622	0.657	0.677	0.576		0.332	0.259	0.306	0.359
H3255	0.273	0.317	0.313	0.311	0.303	0.909	0.831	0.704	0.873	0.732	0.818	0.891	0.734	0.886	0.707	0.448	0.389	0.515	0.537	0.4
HARA	0.307	0.275	0.276	0.289	0.285	1.08	1.47	1.13	1.21	1.05	1.19	0.98	0.956	0.942	0.649	0.527	0.423	0.383	0.202	0.289
HCC-15	0.738	0.744	0.679	0.729	0.556	1.05	1.04	1.09	0.964	0.786	1.06	0.995	1.16	1.07	0.774	0.714	0.752	0.714	0.773	0.587
HCC-44	0.956	0.997	1.02	1.01	0.86	0.926	0.769	0.896	1.06	0.856						0.532	0.643	0.587	0.573	0.581
